From patent US10385022B2, “3-amino-pyridines as GPBAR1 agonists” (HOFFMANN-LA ROCHE INC., priority 2011, dated 2019) come the findings set out here.

Usually EC50 stands for the concentration that produces a half-maximal response. A lower EC50 goes with greater potency.

This assay addresses human GPBAR1 receptor (Homo sapiens (Human), UniProt Q8TDU6). As to the kind of experiment: functional cAMP assay in CHO-dhfr(minus) cells expressing human GPBAR1 receptors. It counts as cell-based. Particulars: CHO-dhfr(minus) cells expressing human GPBAR1, 30 min at 30° C. A digest of the protocol: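 CHO-dhfr- cells were transfected with human GPBAR1, and a clone was chosen by cAMP response to lithocholic acid. EC50 values come from the cAMP read-out; specificity was checked in non-transfected CHO cells.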
Background: Cyclic AMP is a second messenger, typically raised through Gs and lowered through Gi signalling.

Sequence of human GPBAR1 receptor (Q8TDU6 whole entry): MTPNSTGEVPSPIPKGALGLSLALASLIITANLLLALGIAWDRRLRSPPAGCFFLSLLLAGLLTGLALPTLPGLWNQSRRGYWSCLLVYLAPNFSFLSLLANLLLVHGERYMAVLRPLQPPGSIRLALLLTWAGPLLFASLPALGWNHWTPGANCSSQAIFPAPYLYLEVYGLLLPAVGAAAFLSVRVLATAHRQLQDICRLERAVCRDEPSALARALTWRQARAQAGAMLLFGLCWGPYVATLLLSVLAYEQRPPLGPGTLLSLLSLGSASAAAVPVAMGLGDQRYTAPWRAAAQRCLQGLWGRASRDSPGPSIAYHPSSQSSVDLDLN

For `Cc1cc(-c2ccccc2C)c(N(C)C(=O)c2cc(C(F)(F)F)cc(C(F)(F)F)c2)cn1` [Example 127, N-Methyl-N-(6-methyl-4-o-tolyl-pyridin-3-yl)-3,5-bis-trifluoromethyl-benzamide], the EC50 was determined as 75 nM. This counts as double-digit nanomolar.
For the compound `Cc1ccccc1-c1ccncc1N(C)C(=O)c1cc(C(F)(F)F)cc(S(=O)(=O)N(C)C)c1` [Example 128, 3-Dimethylsulfamoyl-N-methyl-N-(4-o-tolyl-pyridin-3-yl)-5-trifluoromethyl-benzamide], the EC50 is 29 nM.
To `COc1cc(F)ccc1-c1ccncc1N(C)C(=O)c1cc(F)cc(C(F)(F)F)c1` [Example 129, 3-Fluoro-N-[4-(4-fluoro-2-methoxy-phenyl)-pyridin-3-yl]-N-methyl-5-trifluoromethyl-benzamide] belongs 76 nM; to `COc1cc(F)c(F)cc1-c1ccncc1N(C)C(=O)c1cc(F)cc(C(F)(F)F)c1` [Example 130, N-[4-(4,5-Difluoro-2-methoxy-phenyl)-pyridin-3-yl]-3-fluoro-N-methyl-5-trifluoromethyl-benzamide], 166 nM.
To `Cc1ccccc1-c1ccncc1N(C)C(=O)c1cc(C(F)(F)F)nc(C(F)(F)F)c1` [Example 131, N-Methyl-N-(4-o-tolyl-pyridin-3-yl)-2,6-bis-trifluoromethyl-isonicotinamide] belongs 19 nM; to `COc1cc(F)c(F)cc1-c1ccncc1N(CC(F)(F)F)C(=O)c1cc(F)cc(C(F)(F)F)c1` [Example 132, N-[4-(4,5-Difluoro-2-methoxy-phenyl)-pyridin-3-yl]-3-fluoro-N-(2,2,2-trifluoro-ethyl)-5-trifluoromethyl-benzamide], 1330 nM.
Compound `COc1cc(F)ccc1-c1ccncc1N(CC(F)(F)F)C(=O)c1cc(C(F)(F)F)cc(S(=O)(=O)N(C)C)c1` [Example 133, 3-Dimethylsulfamoyl-N-[4-(4-fluoro-2-methoxy-phenyl)-pyridin-3-yl]-N-(2,2,2-trifluoro-ethyl)-5-trifluoromethyl-benzamide] came in with an EC50 of 39 nM.
To `COc1cc(F)ccc1-c1ccncc1N(CC(F)(F)F)C(=O)c1cc(F)cc(C(F)(F)F)c1` [Example 134, 3-Fluoro-N-[4-(4-fluoro-2-methoxy-phenyl)-pyridin-3-yl]-N-(2,2,2-trifluoro-ethyl)-5-trifluoromethyl-benzamide] belongs 912 nM.
On to `COc1ncccc1-c1ccncc1N(CC(F)(F)F)C(=O)c1cc(C(F)(F)F)cc(C(F)(F)F)c1` [Example 135, N-(2-Methoxy-[3,4′]bipyridinyl-3′-yl)-N-(2,2,2-trifluoro-ethyl)-3,5-bis-trifluoromethyl-benzamide], for which the 50% effective concentration (EC50) was determined as 91 nM.
Next, `COc1cc(F)ccc1-c1ccncc1N(CC(F)(F)F)C(=O)c1cc(C(F)(F)F)cc(S(C)(=O)=O)c1` [Example 136, N-[4-(4-Fluoro-2-methoxy-phenyl)-pyridin-3-yl]-3-methanesulfonyl-N-(2,2,2-trifluoro-ethyl)-5-trifluoromethyl-benzamide]: 247 nM; `COc1cc(F)c(F)cc1-c1ccncc1N(C)C(=O)c1cc(C(F)(F)F)cc(S(C)(=O)=O)c1` [Example 137, N-[4-(4,5-Difluoro-2-methoxy-phenyl)-pyridin-3-yl]-3-methanesulfonyl-N-methyl-5-trifluoromethyl-benzamide]: 166 nM; `COc1cc(F)ccc1-c1ccncc1N(C)C(=O)c1cc(C(F)(F)F)cc(S(C)(=O)=O)c1` [Example 138, N-[4-(4-Fluoro-2-methoxy-phenyl)-pyridin-3-yl]-3-methanesulfonyl-N-methyl-5-trifluoromethyl-benzamide]: 42 nM.
To `COc1cc(F)c(F)cc1-c1ccncc1N(CC(F)(F)F)C(=O)c1cc(C(F)(F)F)cc(S(C)(=O)=O)c1` [Example 139, N-[4-(4,5-Difluoro-2-methoxy-phenyl)-pyridin-3-yl]-3-methanesulfonyl-N-(2,2,2-trifluoro-ethyl)-5-trifluoromethyl-benzamide] belongs 606 nM.
Next, `COc1cc(F)c(F)cc1-c1ccncc1N(CC(F)(F)F)C(=O)c1cc(C(F)(F)F)cc(S(=O)(=O)N(C)C)c1` [Example 140, N-[4-(4,5-Difluoro-2-methoxy-phenyl)-pyridin-3-yl]-3-dimethylsulfamoyl-N-(2,2,2-trifluoro-ethyl)-5-trifluoromethyl-benzamide]: 124 nM; `COc1ncccc1-c1ccncc1N(CC(F)(F)F)C(=O)c1cc(F)cc(C(F)(F)F)c1` [Example 141, 3-Fluoro-N-(2-methoxy-[3,4′]bipyridinyl-3′-yl)-N-(2,2,2-trifluoro-ethyl)-5-trifluoromethyl-benzamide]: 1660 nM.
`COc1ncccc1-c1ccncc1N(CC(F)(F)F)C(=O)c1cc(C(F)(F)F)cc(S(C)(=O)=O)c1` [Example 142, 3-Methanesulfonyl-N-(2-methoxy-[3,4′]bipyridinyl-3′-yl)-N-(2,2,2-trifluoro-ethyl)-5-trifluoromethyl-benzamide] gave a half-maximal effective concentration (EC50) of 396 nM.
To `COc1cc(F)ccc1-c1ccncc1N(C)C(=O)c1cc(C(F)(F)F)cc(S(=O)(=O)N(C)C)c1` [Example 143, 3-Dimethylsulfamoyl-N-[4-(4-fluoro-2-methoxy-phenyl)-pyridin-3-yl]-N-methyl-5-trifluoromethyl-benzamide] belongs 12 nM; to `COc1cc(F)c(F)cc1-c1ccncc1N(C)C(=O)c1cc(C(F)(F)F)nc(C(F)(F)F)c1` [Example 144, N-[4-(4,5-Difluoro-2-methoxy-phenyl)-pyridin-3-yl]-N-methyl-2,6-bis-trifluoromethyl-isonicotinamide], 22 nM; to `COc1ncccc1-c1ccncc1N(CC(F)(F)F)C(=O)c1cc(C(F)(F)F)nc(C(F)(F)F)c1` [Example 145, N-(2-Methoxy-[3,4′]bipyridinyl-3′-yl)-N-(2,2,2-trifluoro-ethyl)-2,6-bis-trifluoromethyl-isonicotinamide], 30 nM.
`COc1cc(F)c(F)cc1-c1ccncc1N(CC(F)(F)F)C(=O)c1cc(C(F)(F)F)nc(C(F)(F)F)c1` [Example 146, N-[4-(4,5-Difluoro-2-methoxy-phenyl)-pyridin-3-yl]-N-(2,2,2-trifluoro-ethyl)-2,6-bis-trifluoromethyl-isonicotinamide] showed an EC50 of 69 nM.
Next, `COc1cc(F)ccc1-c1ccncc1N(CC(F)(F)F)C(=O)c1cc(C(F)(F)F)nc(C(F)(F)F)c1` [Example 147, N-[4-(4-Fluoro-2-methoxy-phenyl)-pyridin-3-yl]-N-(2,2,2-trifluoro-ethyl)-2,6-bis-trifluoromethyl-isonicotinamide]: 18 nM; `COc1cc(F)ccc1-c1ccncc1N(C)C(=O)c1cc(C(F)(F)F)nc(C(F)(F)F)c1` [Example 148, N-[4-(4-Fluoro-2-methoxy-phenyl)-pyridin-3-yl]-N-methyl-2,6-bis-trifluoro methyl-isonicotinamide]: 6 nM.
Consider `Cc1ccccc1-c1ccncc1N(C)C(=O)c1cc(C#N)cc(C(F)(F)F)c1` [Example 149, 3-Cyano-N-methyl-N-(4-o-tolyl-pyridin-3-yl)-5-trifluoromethyl-benzamide], for which the midpoint of the response, the EC50, lay at 242 nM.
To `Cc1ccccc1-c1ccncc1N(CC(F)(F)F)C(=O)c1cc(C(F)(F)F)nc(C(F)(F)F)c1` [Example 150, N-(4-o-Tolyl-pyridin-3-yl)-N-(2,2,2-trifluoro-ethyl)-2,6-bis-trifluoromethyl-isonicotinamide] belongs 90 nM; to `O=C(c1cc(C(F)(F)F)nc(C(F)(F)F)c1)N(CC(F)(F)F)c1cnccc1-c1ccccc1F` [Example 151, N-[4-(2-Fluoro-phenyl)-pyridin-3-yl]-N-(2,2,2-trifluoro-ethyl)-2,6-bis-trifluoromethyl-isonicotinamide], 47 nM; to `Cc1ccccc1-c1ccncc1N(C)C(=O)c1cc(N2CCOCC2)cc(C(F)(F)F)c1` [Example 152, N-Methyl-3-morpholin-4-yl-N-(4-o-tolyl-pyridin-3-yl)-5-trifluoromethyl-benzamide], 558 nM.
In turn, `COc1cc(F)ccc1-c1ccncc1N(CC(F)F)C(=O)c1cc(C(F)(F)F)nc(C(F)(F)F)c1` [Example 153, N-(2,2-Difluoro-ethyl)-N-[4-(4-fluoro-2-methoxy-phenyl)-pyridin-3-yl]-2,6-bis-trifluoromethyl-isonicotinamide] registered a half-maximal effective concentration (EC50) of 19 nM. Compared with the last compound, the EC50 is about 29-fold lower.
As for `COc1cc(F)c(F)cc1-c1ccncc1N(CC(F)F)C(=O)c1cc(C(F)(F)F)nc(C(F)(F)F)c1` [Example 154, N-(2,2-Difluoro-ethyl)-N-[4-(4,5-difluoro-2-methoxy-phenyl)-pyridin-3-yl]-2,6-bis-trifluoromethyl-isonicotinamide], the concentration for a half-maximal effect (EC50) is 39 nM.
To `O=C(c1cc(C(F)(F)F)nc(C(F)(F)F)c1)N(CC(F)F)c1cnccc1-c1ccccc1F` [Example 155, N-(2,2-Difluoro-ethyl)-N-[4-(2-fluoro-phenyl)-pyridin-3-yl]-2,6-bis-trifluoromethyl-isonicotinamide] belongs 38 nM; to `COc1ncccc1-c1ccncc1N(CC(F)F)C(=O)c1cc(C(F)(F)F)nc(C(F)(F)F)c1` [Example 156, N-(2,2-Difluoro-ethyl)-N-(2-methoxy-[3,4′]bipyridinyl-3′-yl)-2,6-bis-trifluoromethyl-isonicotinamide], 36 nM.
Consider `Cc1ccccc1-c1ccncc1N(CC(F)F)C(=O)c1cc(C(F)(F)F)nc(C(F)(F)F)c1` [Example 157, N-(2,2-Difluoro-ethyl)-N-(4-o-tolyl-pyridin-3-yl)-2,6-bis-trifluoromethyl-isonicotinamide], for which the EC50 is 88 nM.
Next, `COc1cc(F)c(F)cc1-c1ccncc1N(CCS(C)(=O)=O)C(=O)c1cc(C(F)(F)F)nc(C(F)(F)F)c1` [Example 158, N-[4-(4,5-Difluoro-2-methoxy-phenyl)-pyridin-3-yl]-N-(2-methanesulfonyl-ethyl)-2,6-bis-trifluoromethyl-isonicotinamide]: 210 nM.
